Experimental findings from US20130065833A1, “ALKYLATED SP-B PEPTOID COMPOUNDS AND RELATED LUNG SURFACTANT COMPOSITIONS” (Northwestern University, priority 2010, published 2013) are described below.

A short description of the data set: Pulsating bubble surfactometry (PBS), dynamic-mode cycling at 20 cpm. The class given is physicochemical. The following applies: 37° C.; for γmax: time point not stated; for % comp (percent SA compression to reach 20 mN m^−1): PBS dynamic-mode, 20 cpm, 100*[(SAmax−SA20)/(SAmax)]. How it is done: The maintenance of good surfactant activity during the dynamic changes in volume or film surface area at the a/l interface was assessed via bubble pulsation in PBS dynamic-mode. This method permits a simplified evaluation of in vitro dynamic film behavior. (Seurynck, S. L., Brown, N. J., Wu, C. W., Germino, K. W., Kohlmeir, E. K., Ingenito, E. P., Glucksberg, M. R., Barron, A. E., and Johnson, M. (2005) J. Appl. Physiol. 99, 624-633.) The γ-surface area (SA) data loops in FIG. 4B for each lipid-peptoid mixture are one representative pulsation cycle at 20 cycles per minute (cpm) after five minutes at 37° C., with bubble expansion in a clockwise loop direction.
The absence of low-γ data in some loops results from the inability of the image analysis system to trace the bubble shape in this regime. The highly compressed state of the film, which enables it to reach low γ, often causes significant bubble shape deformation, eliminating the possibility of tracing the bubble to obtain SA or employing the ellipsoidal Laplace equation to calculate γ. […] Visual, real-time bubble inspection confirmed that significant bubble deformation occurred and that γ reached near-zero in these films.
The lipids DPPC, POPG, and PA were individually dissolved in a chloroform/methanol solution (3/1 [v/v]) to a known concentration (˜2 or 4 mg mL^−1). Single-lipid solutions were then combined by volume at the ratio of DPPC:POPG:PA, 68:22:9 [wt:wt:wt] and to a known total lipid concentration (˜2 mg mL^−1). This well-characterized lipid formulation, the Tanaka Lipids (TL), is considered an adequate mimic of the non-protein (lipid) fraction of LS. The peptides and peptoids were individually dissolved in methanol from a lyophilized powder to a known concentration (1-2 mg mL^−1). For the PBS and LWSB/FM studies, the peptides and peptoids were added to the TL lipid solution at 2.16 mol % (˜10-12 absolute wt %, see Table 1), and the final solution was diluted to ˜1 mg lipid mL^−1. For comparative purposes, the inclusion of peptide/peptoid at 2.16 mol % corresponds to 10 wt % SP-B1-25 relative to the total lipid content (9.1 absolute wt %). Porcine SP-B was dissolved to a known concentration in chloroform/methanol and added to the TL solution at 0.72 mol %, corresponding to roughly 10 wt % of the monomer unit relative to the total lipid content (9.1 absolute wt %). For PBS and LWSB experiments, the standard deviation of the mean (a) was reported.
A commercial pulsating bubble surfactometry (PBS) instrument (General Transco, Largo, FL), modified with a direct, real-time imaging system, which has been previously described and validated in detail, was utilized to obtain both static-mode and dynamic-mode data. Samples were dried to a pellet from chloroform/methanol 3/1 [v/v] using a DNA 120 speedvac (Thermo Electron, Holbrook, N.Y.). The pellet was resuspended in buffer (150 mM NaCl, 10 mM HEPES, 5 mM CaCl2, pH 6.9) to 1.0 mg lipid mL^−1, with a known final volume of 70 μL. Samples were mixed with a pipette 20 times, sonicated with a Fisher Model 60 probe sonicator for two 15-second spurts, and then mixed again 20 times to form a dispersed suspension. Samples were then loaded into a small plastic sample chamber (General Transco) using a modified leak-free methodology. […]

With “Noct2-Nspe6-NLys-Nspe2-NLys2-Nspe4-NLys-Nspe2 [peptoid 3]”, the “% comp (percent SA compression to reach 20 mN m^−1)” value amounted to 12%. Besides, the “γmax” value (PBS dynamic-mode in a TL film) is around 35 mN m^−1.

With “Nspe8-NLys*-Nspe2-NLys2-Nspe4-NLys-Nspe2 [peptoid 1]”, the “% comp (percent SA compression to reach 20 mN m^−1)” value is recorded as around 26%. In addition, under “PBS dynamic-mode in a TL film”, the “γmin” value was “near-zero” and the “γmax” value is given as 46 mN m^−1.
